Reference: the supplement of paper PMC10307832

How the values were obtained:
Experiment in all cases: relative viability (nuclei count vs DMSO), 5 days (fraction); higher = more cells survive
[1] = compound: C1CC(C1)(C(=O)O)C(=O)O.[NH2-].[NH2-].[Pt+2] [Carboplatin] + NC(=O)Nc1cc(-c2cccc(F)c2)sc1C(=O)N[C@H]1CCCNC1 [AZD7762] (partner 0.2 µM)
Summary of the method: (§1)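 Nuclei were stained with Hoechst during a one-step fixation (final 0.05% Triton X-100, 1% formaldehyde, 1 ug/ml Hoechst) carried out 5 days after dosing, then counted on 4× images. The cells, lung cancer lines in 1536-well plates, had been dosed by pin tool the day after seeding with one drug alone or a fixed anchor-drug dose plus five library-drug doses (not always all listed) in √10 steps. Relative viability is the nuclei count in treated wells divided by that in vehicle wells, and each value is the median of duplicate plates.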

[2] = compound: C1CC(C1)(C(=O)O)C(=O)O.[NH2-].[NH2-].[Pt+2] [Carboplatin] + CS(=O)(=O)CCNCc1ccc(-c2ccc3ncnc(Nc4ccc(OCc5cccc(F)c5)c(Cl)c4)c3c2)o1 [Lapatinib] (partner 2 µM)
Summary of the method: as §1

[3] = compound: NS(=O)(=O)OC[C@@H]1C[C@@H](n2ccc3c(N[C@H]4CCc5ccccc54)ncnc32)C[C@@H]1O [MLN4924] + CS(=O)(=O)N1CCN(Cc2cc3nc(-c4cccc5[nH]ncc45)nc(N4CCOCC4)c3s2)CC1 [Pictilisib] (partner 1 µM)
Summary of the method: as §1

[4] = compound: C1CC(C1)(C(=O)O)C(=O)O.[NH2-].[NH2-].[Pt+2] [Carboplatin] + CCNC(=O)c1noc(-c2cc(C(C)C)c(O)cc2O)c1-c1ccc(CN2CCOCC2)cc1 [Luminespib] (partner 0.01 µM)
Summary of the method: as §1

Cell Line | relative viability ([1]; first compound 0.08 µM) | relative viability ([1]; first compound 0.253 µM) | relative viability ([1]; first compound 0.8 µM) | relative viability ([1]; first compound 2.53 µM) | relative viability ([1]; first compound 8 µM) | relative viability ([2]; first compound 0.08 µM) | relative viability ([2]; first compound 0.253 µM) | relative viability ([2]; first compound 0.8 µM) | relative viability ([2]; first compound 2.53 µM) | relative viability ([2]; first compound 8 µM) | relative viability ([3]; first compound 0.04 µM) | relative viability ([3]; first compound 0.1265 µM) | relative viability ([3]; first compound 0.4 µM) | relative viability ([3]; first compound 1.265 µM) | relative viability ([3]; first compound 4 µM) | relative viability ([4]; first compound 0.08 µM) | relative viability ([4]; first compound 0.253 µM) | relative viability ([4]; first compound 0.8 µM) | relative viability ([4]; first compound 2.53 µM) | relative viability ([4]; first compound 8 µM)
LU99A | 0.425 | 0.405 | 0.349 | 0.243 | 0.196 | 0.988 | 1.04 | 1.01 | 0.917 | 0.795 | 0.334 | 0.299 | 0.226 | 0.153 | 0.137 | 0.29 | 0.319 | 0.247 | 0.188 | 0.211
NCI-H1299 | – | – | – | – | – | 0.993 | 0.922 | 0.944 | 0.907 | 0.892 | 0.378 | 0.398 | 0.153 | 0.0571 | 0.0769 | – | – | – | – | –
NCI-H1355 | 0.98 | 0.877 | 0.626 | 0.791 | 0.729 | 1.12 | 1.11 | 1.09 | 1.06 | 0.93 | 0.332 | 0.421 | 0.273 | 0.182 | 0.176 | 0.826 | 0.814 | 0.765 | 0.588 | 0.537
HCC-15 | 1.17 | 1.22 | 1.16 | 1.33 | 0.644 | 0.919 | 0.854 | 0.875 | 0.814 | 0.66 | 0.475 | 0.343 | 0.172 | 0.0896 | 0.107 | 0.434 | 0.302 | 0.177 | 0.306 | 0.42
LXF-289 | 1.17 | 1.16 | 1.07 | 1.06 | 1.03 | 0.908 | 0.936 | 0.91 | 0.89 | 0.891 | 0.683 | 0.688 | 0.374 | 0.134 | 0.0975 | 0.79 | 0.787 | 0.601 | 0.677 | 0.568
201T | 0.643 | 0.608 | 0.612 | 0.482 | 0.423 | 1.06 | 1.08 | 1.11 | 1.08 | 0.99 | 0.783 | 0.837 | 0.833 | 0.425 | 0.366 | 1.02 | 1.06 | 1.1 | 0.988 | 1
HOP-62 | 0.793 | 0.665 | 0.669 | 0.608 | 0.497 | 0.98 | 1.07 | 1.09 | 1.02 | 0.812 | 0.521 | 0.428 | 0.0949 | 0.0537 | 0.103 | 0.957 | 0.876 | 0.819 | 0.799 | 0.719
NCI-H1703 | 0.144 | 0.13 | 0.101 | – | 0.122 | 1.13 | 0.966 | 1.13 | 0.92 | 1.28 | 0.181 | 0.162 | 0.165 | 0.155 | 0.174 | – | – | – | – | –
NCI-H1975 | 0.868 | 0.746 | 0.679 | 0.742 | 0.691 | 0.877 | 0.993 | 0.838 | 0.826 | 0.884 | 0.534 | 0.699 | 0.314 | 0.167 | 0.156 | 0.227 | 0.227 | 0.17 | 0.18 | 0.113
NCI-H2023 | – | – | – | – | – | 0.941 | 1.21 | 0.954 | 0.68 | 0.257 | 0.315 | 0.145 | 0.101 | 0.0651 | 0.0705 | 0.774 | 0.715 | 0.668 | 0.281 | 0.172
EBC-1 | – | – | – | – | – | 0.201 | 0.234 | 0.201 | 0.208 | 0.204 | 0.488 | 0.372 | 0.245 | 0.11 | 0.162 | – | – | – | – | –
COR-L23 | – | – | – | – | – | 0.946 | 0.919 | 0.67 | 0.728 | 0.419 | 0.711 | 0.71 | 0.159 | 0.104 | 0.0964 | 0.617 | 0.678 | 0.568 | 0.254 | 0.163
NCI-H1793 | 0.667 | 0.457 | 0.393 | 0.334 | 0.58 | 0.941 | 0.49 | 0.485 | 0.628 | 0.833 | 0.322 | 0.284 | 0.273 | 0.245 | 0.121 | 0.153 | 0.172 | 0.187 | 0.185 | 0.17
A549 | – | – | – | – | – | 1.12 | 0.938 | 0.911 | 0.928 | 0.437 | 0.5 | 0.474 | 0.246 | 0.0557 | 0.0729 | – | – | – | – | –
ChaGo-K-1 | 0.935 | 0.866 | 0.891 | 0.817 | 0.639 | – | – | – | – | – | 0.515 | 0.434 | 0.369 | 0.258 | 0.272 | 0.774 | 0.589 | 0.399 | 0.398 | 0.297
SW 900 | 0.651 | 0.689 | 0.531 | 0.533 | 0.542 | – | – | – | – | – | – | – | – | – | – | 0.16 | 0.168 | 0.162 | 0.161 | 0.15
